# Test results: patent US11793849B2, “Method of Chinese herbal medicine extract used for treating multiple diseases caused by drug resistant bacteria infection” (priority 2016, dated 2023)
# Read-outs that look alike come from different tables or passages of the source.
# Test system: MDRAB
# Assay: Checkerboard assay (combined-use MIC, FIC)
# Assay type: cell-based, Acinetobacter baumannii
# Details: for FIC, all strains / MIC50 of the antibiotic after combined use / MIC90 of the antibiotic after combined use / reduction of the antibiotic's MIC50 vs single use / reduction of the antibiotic's MIC90 vs single use / share of strains with FIC ≤ 0.5: 20 MDRABs; for MIC: Acinetobacter baumannii, read-out: single-use MIC
# Experimental: Test methods of the sensibilization effects of the test product to similar antibiotics: it is operated by referring to a checkerboard assay recommended by NCCLS.
# The checkerboard assay is performed in a 96-pore sterile culture plate.
# Calculation of a Fractional Inhibitory Concentration (FIC): FIC=S20b combined-use MIC/S20b single-use MIC+antibiotic combined-use MIC/antibiotic single-use MIC. By calculating the FIC, the combined antibacterial interaction between the EA and the antibiotic is evaluated, with synergistic effect for FIC≤0.5, additive effect for 0.5<FIC≤1, indifferent effect for 1<FIC≤2 and antagonistic effect for FIC>2. According to a sterile growth pore, the optimum concentration ratio between the EA and the antibiotic is founded out. At last, the effect of the EA to strengthen the efficacy of the antibiotic is evaluated.
# [1] = antibiotic with 60% ethanol extract
# [2] = antibiotic with 95% ethanol extract
# [3] = antibiotic with EA (10% ethanol extract)
# [4] = antibiotic with EA (water extract)
smiles,measurement,setting,value
"C[C@@H](O)[C@H]1C(=O)N2C(C(=O)O)=C(SCCN=CN)C[C@H]12 [IMP, imipenem]","FIC, all strains",[1],≤ 1
same,MIC50 of the antibiotic after combined use,[1],8 µg/mL
same,MIC90 of the antibiotic after combined use,[1],16 µg/mL
same,reduction of the antibiotic's MIC50 vs single use,[1],75%
same,reduction of the antibiotic's MIC90 vs single use,[1],50%
same,share of strains with FIC ≤ 0.5,[1],70%
same,"FIC, all strains",[2],≤ 1
same,MIC50 of the antibiotic after combined use,[2],8 µg/mL
same,MIC90 of the antibiotic after combined use,[2],16 µg/mL
same,reduction of the antibiotic's MIC50 vs single use,[2],75%
same,reduction of the antibiotic's MIC90 vs single use,[2],50%
same,share of strains with FIC ≤ 0.5,[2],55%
same,"FIC, all strains",[3],≤ 1
same,MIC50 of the antibiotic after combined use,[3],8 µg/mL
same,MIC90 of the antibiotic after combined use,[3],16 µg/mL
same,reduction of the antibiotic's MIC50 vs single use,[3],75%
same,reduction of the antibiotic's MIC90 vs single use,[3],50%
same,share of strains with FIC ≤ 0.5,[3],45%
same,"FIC, all strains",[4],≤ 1
same,MIC50 of the antibiotic after combined use,[4],8 µg/mL
same,MIC90 of the antibiotic after combined use,[4],16 µg/mL
same,reduction of the antibiotic's MIC50 vs single use,[4],75%
same,reduction of the antibiotic's MIC90 vs single use,[4],50%
same,share of strains with FIC ≤ 0.5,[4],35%
same,MIC,"strain A1, EA=60% ethanol extract",1 µg/mL
same,MIC,"strain A1, EA=95% ethanol extract",1 µg/mL
same,MIC,"strain A2, EA=60% ethanol extract",32 µg/mL
same,MIC,"strain A2, EA=95% ethanol extract",32 µg/mL
same,MIC,"strain A3, EA=60% ethanol extract",32 µg/mL
same,MIC,"strain A3, EA=95% ethanol extract",32 µg/mL
same,MIC,"strain A4, EA=60% ethanol extract",8 µg/mL
same,MIC,"strain A4, EA=95% ethanol extract",8 µg/mL
same,MIC,"strain A5 (printed AS in tables A43, A45), EA=95% ethanol extract",32 µg/mL
same,MIC,"strain A5, EA=60% ethanol extract",32 µg/mL
same,MIC,"strain A6, EA=60% ethanol extract",32 µg/mL
same,MIC,"strain A6, EA=95% ethanol extract",32 µg/mL
same,MIC,"strain A7, EA=60% ethanol extract",32 µg/mL
same,MIC,"strain A7, EA=95% ethanol extract",32 µg/mL
same,MIC,"strain A8, EA=60% ethanol extract",32 µg/mL
same,MIC,"strain A8, EA=95% ethanol extract",32 µg/mL
same,MIC,"strain A9, EA=60% ethanol extract",32 µg/mL
same,MIC,"strain A9, EA=95% ethanol extract",32 µg/mL
same,MIC,"strain A10, EA=60% ethanol extract",16 µg/mL
same,MIC,"strain A10, EA=95% ethanol extract",16 µg/mL
same,MIC,"strain A11, EA=60% ethanol extract",32 µg/mL
same,MIC,"strain A11, EA=95% ethanol extract",32 µg/mL
same,MIC,"strain A12, EA=60% ethanol extract",32 µg/mL
same,MIC,"strain A12, EA=95% ethanol extract",32 µg/mL
same,MIC,"strain A13, EA=60% ethanol extract",32 µg/mL
same,MIC,"strain A13, EA=95% ethanol extract",32 µg/mL
same,MIC,"strain A14, EA=60% ethanol extract",32 µg/mL
same,MIC,"strain A14, EA=95% ethanol extract",32 µg/mL
same,MIC,"strain A15, EA=60% ethanol extract",32 µg/mL
same,MIC,"strain A15, EA=95% ethanol extract",32 µg/mL
same,MIC,"strain A16, EA=60% ethanol extract",32 µg/mL
same,MIC,"strain A16, EA=95% ethanol extract",32 µg/mL
same,MIC,"strain A17, EA=60% ethanol extract",16 µg/mL
same,MIC,"strain A17, EA=95% ethanol extract",16 µg/mL
same,MIC,"strain A18, EA=60% ethanol extract",32 µg/mL
same,MIC,"strain A18, EA=95% ethanol extract",32 µg/mL
same,MIC,"strain A19, EA=60% ethanol extract",32 µg/mL
same,MIC,"strain A19, EA=95% ethanol extract",32 µg/mL
same,MIC,"strain A20, EA=60% ethanol extract",32 µg/mL
same,MIC,"strain A20, EA=95% ethanol extract",32 µg/mL
same,combined-use MIC,"strain A1, EA (10% ethanol extract) with IMP",0.5 µg/mL
same,combined-use MIC,"strain A1, EA (60% ethanol extract) + IMP combined",0.5 µg/mL
same,combined-use MIC,"strain A1, EA (95% ethanol extract) + IMP combined",0.5 µg/mL
same,combined-use MIC,"strain A1, EA (water extract) with IMP",0.5 µg/mL
same,combined-use MIC,"strain A2, EA (10% ethanol extract) with IMP",8 µg/mL
same,combined-use MIC,"strain A2, EA (60% ethanol extract) + IMP combined",8 µg/mL
same,combined-use MIC,"strain A2, EA (95% ethanol extract) + IMP combined",8 µg/mL
same,combined-use MIC,"strain A2, EA (water extract) with IMP",16 µg/mL
same,combined-use MIC,"strain A3, EA (10% ethanol extract) with IMP",8 µg/mL
same,combined-use MIC,"strain A3, EA (60% ethanol extract) + IMP combined",8 µg/mL
same,combined-use MIC,"strain A3, EA (95% ethanol extract) + IMP combined",8 µg/mL
same,combined-use MIC,"strain A3, EA (water extract) with IMP",16 µg/mL
same,combined-use MIC,"strain A4, EA (10% ethanol extract) with IMP",8 µg/mL
same,combined-use MIC,"strain A4, EA (60% ethanol extract) + IMP combined",0.5 µg/mL
same,combined-use MIC,"strain A4, EA (95% ethanol extract) + IMP combined",0.5 µg/mL
same,combined-use MIC,"strain A4, EA (water extract) with IMP",1 µg/mL
same,combined-use MIC,"strain A5, EA (10% ethanol extract) with IMP",8 µg/mL
same,combined-use MIC,"strain A5, EA (60% ethanol extract) + IMP combined",8 µg/mL
same,combined-use MIC,"strain A5, EA (water extract) with IMP",16 µg/mL
same,combined-use MIC,"strain A6, EA (10% ethanol extract) with IMP",4 µg/mL
same,combined-use MIC,"strain A6, EA (60% ethanol extract) + IMP combined",16 µg/mL
same,combined-use MIC,"strain A6, EA (95% ethanol extract) + IMP combined",16 µg/mL
same,combined-use MIC,"strain A6, EA (water extract) with IMP",16 µg/mL
same,combined-use MIC,"strain A7, EA (10% ethanol extract) with IMP",8 µg/mL
same,combined-use MIC,"strain A7, EA (60% ethanol extract) + IMP combined",16 µg/mL
same,combined-use MIC,"strain A7, EA (95% ethanol extract) + IMP combined",16 µg/mL
same,combined-use MIC,"strain A7, EA (water extract) with IMP",16 µg/mL
same,combined-use MIC,"strain A8, EA (10% ethanol extract) with IMP",16 µg/mL
same,combined-use MIC,"strain A8, EA (60% ethanol extract) + IMP combined",16 µg/mL
same,combined-use MIC,"strain A8, EA (95% ethanol extract) + IMP combined",16 µg/mL
same,combined-use MIC,"strain A8, EA (water extract) with IMP",16 µg/mL
same,combined-use MIC,"strain A9, EA (10% ethanol extract) with IMP",8 µg/mL
same,combined-use MIC,"strain A9, EA (60% ethanol extract) + IMP combined",4 µg/mL
same,combined-use MIC,"strain A9, EA (95% ethanol extract) + IMP combined",4 µg/mL
same,combined-use MIC,"strain A9, EA (water extract) with IMP",16 µg/mL
same,combined-use MIC,"strain A10, EA (10% ethanol extract) with IMP",8 µg/mL
same,combined-use MIC,"strain A10, EA (60% ethanol extract) + IMP combined",8 µg/mL
same,combined-use MIC,"strain A10, EA (95% ethanol extract) + IMP combined",8 µg/mL
same,combined-use MIC,"strain A10, EA (water extract) with IMP",8 µg/mL
same,combined-use MIC,"strain A11, EA (10% ethanol extract) with IMP",8 µg/mL
same,combined-use MIC,"strain A11, EA (60% ethanol extract) + IMP combined",4 µg/mL
same,combined-use MIC,"strain A11, EA (95% ethanol extract) + IMP combined",4 µg/mL
same,combined-use MIC,"strain A11, EA (water extract) with IMP",8 µg/mL
same,combined-use MIC,"strain A12, EA (10% ethanol extract) with IMP",8 µg/mL
same,combined-use MIC,"strain A12, EA (60% ethanol extract) + IMP combined",8 µg/mL
same,combined-use MIC,"strain A12, EA (95% ethanol extract) + IMP combined",8 µg/mL
same,combined-use MIC,"strain A12, EA (water extract) with IMP",16 µg/mL
same,combined-use MIC,"strain A13, EA (10% ethanol extract) with IMP",8 µg/mL
same,combined-use MIC,"strain A13, EA (60% ethanol extract) + IMP combined",8 µg/mL
same,combined-use MIC,"strain A13, EA (95% ethanol extract) + IMP combined",8 µg/mL
same,combined-use MIC,"strain A13, EA (water extract) with IMP",16 µg/mL
same,combined-use MIC,"strain A14, EA (10% ethanol extract) with IMP",16 µg/mL
same,combined-use MIC,"strain A14, EA (60% ethanol extract) + IMP combined",4 µg/mL
same,combined-use MIC,"strain A14, EA (95% ethanol extract) + IMP combined",8 µg/mL
same,combined-use MIC,"strain A14, EA (water extract) with IMP",4 µg/mL
same,combined-use MIC,"strain A15, EA (10% ethanol extract) with IMP",8 µg/mL
same,combined-use MIC,"strain A15, EA (60% ethanol extract) + IMP combined",4 µg/mL
same,combined-use MIC,"strain A15, EA (95% ethanol extract) + IMP combined",8 µg/mL
same,combined-use MIC,"strain A15, EA (water extract) with IMP",4 µg/mL
same,combined-use MIC,"strain A16, EA (10% ethanol extract) with IMP",8 µg/mL
same,combined-use MIC,"strain A16, EA (60% ethanol extract) + IMP combined",8 µg/mL
same,combined-use MIC,"strain A16, EA (95% ethanol extract) + IMP combined",8 µg/mL
same,combined-use MIC,"strain A16, EA (water extract) with IMP",8 µg/mL
same,combined-use MIC,"strain A17, EA (10% ethanol extract) with IMP",4 µg/mL
same,combined-use MIC,"strain A17, EA (60% ethanol extract) + IMP combined",2 µg/mL
same,combined-use MIC,"strain A17, EA (95% ethanol extract) + IMP combined",2 µg/mL
same,combined-use MIC,"strain A17, EA (water extract) with IMP",2 µg/mL
same,combined-use MIC,"strain A18, EA (10% ethanol extract) with IMP",16 µg/mL
same,combined-use MIC,"strain A18, EA (60% ethanol extract) + IMP combined",8 µg/mL
same,combined-use MIC,"strain A18, EA (95% ethanol extract) + IMP combined",8 µg/mL
same,combined-use MIC,"strain A18, EA (water extract) with IMP",8 µg/mL
same,combined-use MIC,"strain A19, EA (10% ethanol extract) with IMP",8 µg/mL
same,combined-use MIC,"strain A19, EA (60% ethanol extract) + IMP combined",8 µg/mL
same,combined-use MIC,"strain A19, EA (95% ethanol extract) + IMP combined",8 µg/mL
same,combined-use MIC,"strain A19, EA (water extract) with IMP",8 µg/mL
same,combined-use MIC,"strain A20, EA (10% ethanol extract) with IMP",8 µg/mL
same,combined-use MIC,"strain A20, EA (60% ethanol extract) + IMP combined",8 µg/mL
same,combined-use MIC,"strain A20, EA (95% ethanol extract) + IMP combined",8 µg/mL
same,combined-use MIC,"strain A20, EA (water extract) with IMP",8 µg/mL
same,combined-use MIC,"strain AS, EA (95% ethanol extract) + IMP combined",8 µg/mL
